# Laboratory results: US12617773B2, “Azetidin-3-ylmethanol derivatives as CCR6 receptor modulators” (Idorsia Pharmaceuticals Ltd, priority 2020, dated 2026)
# Target: T1, human CCR6 (Homo sapiens, UniProt P51684)
# T1 construct: expressed in transfected cells; host or cells: HEK-293
# T1 sequence (P51684 1-374): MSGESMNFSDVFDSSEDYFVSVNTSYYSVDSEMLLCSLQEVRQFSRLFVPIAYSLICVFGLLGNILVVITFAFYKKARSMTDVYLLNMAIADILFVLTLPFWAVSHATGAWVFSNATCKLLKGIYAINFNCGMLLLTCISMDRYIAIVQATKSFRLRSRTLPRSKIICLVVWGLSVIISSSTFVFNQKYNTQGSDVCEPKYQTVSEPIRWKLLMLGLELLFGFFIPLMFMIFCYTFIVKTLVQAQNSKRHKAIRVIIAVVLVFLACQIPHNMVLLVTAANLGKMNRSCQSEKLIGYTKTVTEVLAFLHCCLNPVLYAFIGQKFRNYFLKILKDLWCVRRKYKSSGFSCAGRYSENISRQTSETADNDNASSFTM
# Assay: FLIPR assay (inhibition of CCL20-induced calcium signal)
# Assay type: cell-based
# Conditions: HEK-293 cells expressing human CCR6; mean values where determined several times; read-out: FLIPR IC50
# Description: FLIPR assay: The bioactivity of compounds is tested in a fluorometric imaging plate reader (FLIPR: Molecular Devices) using engineered HEK-293 cells expressing the human CCR6 (GenBank: AY242126). Frozen cells are plated on Poly-L-Lysine precoated 384-well plates 2 days prior to bioassay in DMEM medium supplemented with 10% FCS and 1% Penicillin-Streptomycin. […] This buffer, but lacking the dye, is also used for washing and compound dilution steps (assay buffer). Cells are washed free of excess dye with a wash-station (Biotek), leaving 40 microliter of assay buffer at the end. Cells were incubated for 15 minutes at room temperature in the dark, before adding compounds. Stock solutions of test compounds are made up at a concentration of 10 mM in DMSO, and serially diluted first in DMSO and then transferred in assay buffer to concentrations required for inhibition dose response curves. After a 45-minute incubation period in assay buffer at room temperature, 10 microliters of each compound dilution are transferred from a compound plate to the plate containing the recombinant cells in the FLIPR instrument according to the manufacturer's instructions. After cells and compounds were preincubated for 30 minutes at room temperature in the dark, 10 microliter agonist CCL20 (Peprotech) at a final concentration of 10 nM is added, again using the FLIPR instrument. Changes in fluorescence are monitored before and after addition of the test compounds and agonist. Emission peak values above base level after CCL20 addition are exported after base line subtraction.
# The calculated IC50 values may fluctuate depending on the daily assay performance. Fluctuations of this kind are known to those skilled in the art.
row,Compound,IC50
1,CC(C)c1ccc([C@](O)(c2cncc(N3CC4OCCC4C3=O)c2)C2(C)CN(C)C2)cc1 (mixture of isomers) [Example 210],326 nM
2,"CC(=O)N1CC[C@H](c2nc(-c3cncc([C@@](O)(c4ccc(C(C)C)cc4)C4(C)CN(C)C4)c3)no2)[C@H](C)C1 (mixture of isomers) [Example 478, 1-[cis-4-(3-{5-[(R)-(1,3-Dimethyl-azetidin-3-yl)-hydroxy-(4-isopropyl-phenyl)-methyl]-pyridin-3-yl}-[1,2,4]oxadiazol-5-yl)-3-methyl-piperidin-1-yl]-ethanone]",88.9 nM
3,"CC(C)c1ccc([C@](O)(c2cncc(N3C[C@H](C(C)(C)C)OC3=O)c2)C2(C)CN(C)C2)cc1 (single isomer, unassigned) [Example 167]",66.9 nM
4,"CC(C)c1ccc([C@](O)(c2cncc([C@@H]3CCC(C)(O)C3)c2)C2(C)CN(C)C2)cc1 (single isomer, unassigned) [Example 297]",93.5 nM
5,"CC(C)c1ccc([C@](O)(c2cncc(-c3noc(C4(C)CC(=O)N(C)C4)n3)c2)C2(C)CN(C)C2)cc1 (single isomer, unassigned) [Example 365]",147 nM
6,"CC(C)c1ccc([C@](O)(c2cncc(-c3noc(C4(C)CC(=O)N(C)C4)n3)c2)C2(C)CN(C)C2)cc1 (single isomer, unassigned) [Example 366]",165 nM
7,"Cc1cc(C(C)(O)C#Cc2cncc([C@@](O)(c3ccc(C(C)C)cc3)C3(C)CN(C)C3)c2)nn1C (single isomer, unassigned) [Example 401]",117 nM
8,"Cc1cc(C(C)(O)C#Cc2cncc([C@@](O)(c3ccc(C(C)C)cc3)C3(C)CN(C)C3)c2)nn1C (single isomer, unassigned) [Example 402]",88.3 nM
9,"CC(C)c1ccc([C@](O)(c2cncc(C#CC(C)(O)c3ccn(C)n3)c2)C2(C)CN(C)C2)cc1 (single isomer, unassigned) [Example 404]",164 nM
10,"CC(C)c1ccc([C@](O)(c2cncc(C#CC(C)(O)c3ccn(C)n3)c2)C2(C)CN(C)C2)cc1 (single isomer, unassigned) [Example 405]",102 nM
11,"CC(C)c1ccc([C@](O)(c2cncc(-c3noc(C4CC(=O)N(C)C4)n3)c2)C2(C)CN(C)C2)cc1 (single isomer, unassigned) [Example 509]",208 nM
12,"CCN1CC(c2nc(-c3cncc([C@@](O)(c4ccc(C(C)C)cc4)C4(C)CN(C)C4)c3)no2)CC1=O (single isomer, unassigned) [Example 510]",184 nM
13,"CCN1CC(c2nc(-c3cncc([C@@](O)(c4ccc(C(C)C)cc4)C4(C)CN(C)C4)c3)no2)CC1=O (single isomer, unassigned) [Example 511]",133 nM
14,"CC(C)c1ccc([C@](O)(c2cncc(-c3noc(C4CC(=O)N(C(C)C)C4)n3)c2)C2(C)CN(C)C2)cc1 (single isomer, unassigned) [Example 512]",61.1 nM
15,"CC(C)c1ccc([C@](O)(c2cncc(-c3noc(C4CC(=O)N(C(C)C)C4)n3)c2)C2(C)CN(C)C2)cc1 (single isomer, unassigned) [Example 513]",101 nM
16,"CC(C)c1ccc([C@](O)(c2cncc(-c3noc(C4CCNC(=O)C4)n3)c2)C2(C)CN(C)C2)cc1 (single isomer, unassigned) [Example 515]",181 nM
17,"CC(C)c1ccc([C@](O)(c2cncc(-c3noc(C4CCNC(=O)C4)n3)c2)C2(C)CN(C)C2)cc1 (single isomer, unassigned) [Example 516]",104 nM
18,"COc1cc(C(C)(O)C#Cc2cncc([C@@](O)(c3ccc(C(C)C)cc3)C3(C)CN(C)C3)c2)ncn1 (single isomer, unassigned) [Example 620]",55.3 nM
19,"COc1cc(C(C)(O)C#Cc2cncc([C@@](O)(c3ccc(C(C)C)cc3)C3(C)CN(C)C3)c2)ncn1 (single isomer, unassigned) [Example 622]",105 nM
20,"COc1nccc(C(C)(O)C#Cc2cncc([C@@](O)(c3ccc(C(C)C)cc3)C3(C)CN(C)C3)c2)n1 (single isomer, unassigned) [Example 623]",44.9 nM
21,"COc1nccc(C(C)(O)C#Cc2cncc([C@@](O)(c3ccc(C(C)C)cc3)C3(C)CN(C)C3)c2)n1 (single isomer, unassigned) [Example 624]",81.8 nM

row,Compound,IC50
1,"Cc1cc(C(C)(O)C#Cc2cncc([C@@](O)(c3ccc(C(C)C)cc3)C3(C)CN(C)C3)c2)nc(C)n1 (single isomer, unassigned) [Example 625]",107 nM
2,"Cc1cc(C(C)(O)C#Cc2cncc([C@@](O)(c3ccc(C(C)C)cc3)C3(C)CN(C)C3)c2)nc(C)n1 (single isomer, unassigned) [Example 626]",111 nM
3,"COc1cc(C(C)(O)C#Cc2cncc([C@@](O)(c3ccc(C(C)C)cc3)C3(C)CN(C)C3)c2)nc(OC)n1 (single isomer, unassigned) [Example 627]",11.5 nM
4,"COc1cc(C(C)(O)C#Cc2cncc([C@@](O)(c3ccc(C(C)C)cc3)C3(C)CN(C)C3)c2)nc(OC)n1 (single isomer, unassigned) [Example 628]",20.2 nM
5,"COc1nc(C)cc(C(C)(O)C#Cc2cncc([C@@](O)(c3ccc(C(C)C)cc3)C3(C)CN(C)C3)c2)n1 (single isomer, unassigned) [Example 629]",60.9 nM
6,"COc1cc(C(C)(O)C#Cc2cncc([C@@](O)(c3ccc(C(C)C)cc3)C3(C)CN(C)C3)c2)nc(C)n1 (single isomer, unassigned) [Example 630]",61.1 nM
7,"COc1cc(C(C)(O)C#Cc2cncc([C@@](O)(c3ccc(C(C)C)cc3)C3(C)CN(C)C3)c2)nc(C)n1 (single isomer, unassigned) [Example 631]",79.5 nM
8,"CC(C)c1ccc([C@](O)(c2cncc(C#CC(C)(O)c3ccnc(C(F)(F)F)n3)c2)C2(C)CN(C)C2)cc1 (single isomer, unassigned) [Example 652]",10.9 nM
9,"CC(C)c1ccc([C@](O)(c2cncc(C#CC(C)(O)c3ccnc(C(F)(F)F)n3)c2)C2(C)CN(C)C2)cc1 (single isomer, unassigned) [Example 653]",10.1 nM
10,"CN1CC(F)(C(O)(c2ccc(OC(F)(F)F)cc2)c2cncc(N3CCCC3)c2)C1 (centres unmarked) [Example 1, (3-Fluoro-1-methyl-azetidin-3-yl)-(5-pyrrolidin-1-yl-pyridin-3-yl)-(4-trifluoromethoxy-phenyl)-methanol]",114 nM
11,"CN1CC(C#N)(C(O)(c2ccc(OC(F)(F)F)cc2)c2cncc(N3CCCC3)c2)C1 (centres unmarked) [Example 2, 3-[Hydroxy-(5-pyrrolidin-1-yl-pyridin-3-yl)-(4-trifluoromethoxy-phenyl)-methyl]-1-methyl-azetidine-3-carbonitrile]",147 nM
12,"CCN1CC(C)([C@](O)(c2ccc(OC(F)(F)F)cc2)c2cncc(N3CCCC3)c2)C1 [Example 3, (R)-(1-Ethyl-3-methyl-azetidin-3-yl)-(5-pyrrolidin-1-yl-pyridin-3-yl)-(4-trifluoromethoxy-phenyl)-methanol]",28 nM
13,CCCN1CC(C)([C@](O)(c2ccc(OC(F)(F)F)cc2)c2cncc(N3CCCC3)c2)C1 [Example 4],36.2 nM
14,CC(C)N1CC(C)([C@](O)(c2ccc(OC(F)(F)F)cc2)c2cncc(N3CCCC3)c2)C1 [Example 5],33.3 nM
15,CC1([C@](O)(c2ccc(OC(F)(F)F)cc2)c2cncc(N3CCCC3)c2)CN(CC2CC2)C1 [Example 6],47.2 nM
16,CC1([C@](O)(c2ccc(OC(F)(F)F)cc2)c2cncc(N3CCCC3)c2)CN(C2CCC2)C1 [Example 7],54.3 nM
17,CC(C)CN1CC(C)([C@](O)(c2ccc(OC(F)(F)F)cc2)c2cncc(N3CCCC3)c2)C1 [Example 8],110 nM
18,"CC1([C@](O)(c2ccc(OC(F)(F)F)cc2)c2cncc(N3CCCC3)c2)CN(C2CC2)C1 [Example 9, (R)-(1-Cyclopropyl-3-methyl-azetidin-3-yl)-(5-pyrrolidin-1-yl-pyridin-3-yl)-(4-trifluoromethoxy-phenyl)-methanol]",74.7 nM
19,"CC1([C@](O)(c2ccc(OC(F)(F)F)cc2)c2cncc(N3CCCC3)c2)CN(CCF)C1 [Example 10, (R)-[1-(2-Fluoro-ethyl)-3-methyl-azetidin-3-yl]-(5-pyrrolidin-1-yl-pyridin-3-yl)-(4-trifluoromethoxy-phenyl)-methanol]",64.1 nM
20,"CC1([C@](O)(c2ccc(OC(F)(F)F)cc2)c2cncc(N3CCCC3)c2)CN(CC(F)F)C1 [Example 11, (R)-[1-(2,2-Difluoro-ethyl)-3-methyl-azetidin-3-yl]-(5-pyrrolidin-1-yl-pyridin-3-yl)-(4-trifluoromethoxy-phenyl)-methanol]",130 nM
